# Biological target: T1, human norepinephrine transporter (Homo sapiens, UniProt P23975)
# T1 construct: expressed in transfected cells; host or cells: MDCK (dog kidney) cells, stably transfected; total cell membranes
# Experiment: [125I]RTI-55 membrane binding assay
# Conditions: for IC50: membranes of MDCK cells transfected with human NET, 0.2 nM [125I]RTI-55, 4° C., 3 h, read-out: IC50, inhibition of [125I]RTI-55 binding to norepinephrine transporter; for inhibition of [125I]RTI-55 binding to norepinephrine transporter (result in words): qualitative statement
# Description: Membrane Binding Assay. Membranes from dog kidney MDCK cells, which stably transfected with the human norepinephrine transporter, were used. Total cell membranes were prepared from transfected cells grown to confluence in 500 cm^2 tissue culture dishes. Cells were scraped into centrifuge tube and pelleted at 900 g and 4° C. for 10 min. The pellets were resuspended in modified Tris-HCl buffer (50 mM Tris-HCl, 100 mM NaCl, 1 μM leupetin, 10 μM PMSF; pH 7.4), and centrifuged at 17000 g and 4° C. for 30 min. Then, the pellets were resuspended, homogenized with a glass homogenizer with a Teflon pestle and centrifuged at 17000 g and 4° C. for 90 minutes. Pellets were collected and resuspended in modified Tris-HCl buffer. Protein concentrations were determined using BCA protein assay reagent (Pierce, Rockford). […] The binding was terminated by rapid vacuum filtration over Whatman GF/B filters soaked in 0.3% polyethylineimine followed by three rapid 1 mL washes in ice-cold buffer. Bound radioactivity was measured by gamma emission spectrometry. Non-specific binding was determined in the presence of 10 μM desipramine and was subtracted from the data in the absence of desipramine to yield specific binding.
# T1 sequence (P23975 whole entry): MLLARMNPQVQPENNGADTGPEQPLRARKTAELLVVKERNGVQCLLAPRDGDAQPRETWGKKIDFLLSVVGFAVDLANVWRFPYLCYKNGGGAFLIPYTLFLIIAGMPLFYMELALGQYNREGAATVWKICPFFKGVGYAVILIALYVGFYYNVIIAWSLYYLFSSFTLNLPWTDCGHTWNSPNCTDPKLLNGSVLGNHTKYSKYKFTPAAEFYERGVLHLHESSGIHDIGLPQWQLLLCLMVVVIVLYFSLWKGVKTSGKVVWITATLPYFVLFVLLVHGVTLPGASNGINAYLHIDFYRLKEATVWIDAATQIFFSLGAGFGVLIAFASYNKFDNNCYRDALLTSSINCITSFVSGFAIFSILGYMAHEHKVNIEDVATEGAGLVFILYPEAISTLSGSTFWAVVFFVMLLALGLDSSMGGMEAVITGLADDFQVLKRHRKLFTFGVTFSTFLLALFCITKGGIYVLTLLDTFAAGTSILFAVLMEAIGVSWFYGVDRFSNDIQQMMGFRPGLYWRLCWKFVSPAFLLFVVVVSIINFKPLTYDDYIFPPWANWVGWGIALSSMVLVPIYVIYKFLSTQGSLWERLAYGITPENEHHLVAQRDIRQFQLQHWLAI
Compound,IC50 [µM],inhibition of [125I]RTI-55 binding to norepinephrine transporter (result in words)
"O=C(OCC1OC(OC2COC(CO)C(O)C2O)C(O)C(O)C1O)c1ccccc1 (stereo not drawn) [Compound 1, 6-O-benzoyl polygolitosyl-(2→1)-α-galactose]",30,more potent than the others
"O=C(OC1C(O)C(CO)OC(OC2COC(CO)C(O)C2O)C1O)c1ccccc1 (stereo not drawn) [Compound 2, 3-O-benzoyl-polygolitosyl-(2→1)-α-galactose]",6.04,more potent than the others
